Results published in US10111902B2, “Polymers for reversing heparin-based anticoagulation” (University of British Columbia, priority 2011, dated 2018).

Assays:
[1] = system: Enoxaparin; assay: Anti Xa neutralization of Enoxaparin in platelet poor plasma; format: biochemical, human; conditions: One IU LMWH per ml in platelet poor plasma
Method: Both JNK-1 and JNK-2 result in greater neutralization of unfractionated heparin at two doses (50 and 100 μg/ml), Tinzaparin (LMWH) and Enoxaparin (LMWH).

[2] = system: UFH; assay: Thromboelastography (TEG), neutralization of UFH in whole blood; format: cell-based; conditions: human whole blood, UFH 0.5 U/ml, re-calcified at 37° C
Method: This example examines thromboelastography in the presence of various heparin binders. Thromboelastography (TEG) provides an in vitro method for monitoring of the evolution of the viscoelastic properties and coagulation kinetics of blood as clotting proceeds. The principle components of the TEG are a cylindrical cup and a bob suspended in the cup from a weak torsion wire. The warmed cup oscillates over a 10 second period through an angle of 4° 45′. Blood is added and a torque is transmitted to the bob as the gel forms. The rate of clot formation, the strength of the clot, and the rate of clot lysis are reflected in the shape traced out by the maxima in the bob oscillation as a function of time (the trace of the TEG). […]
To carry out TEG experiments, citrate anti-coagulated whole blood with heparin or heparin derivatives added are incubated with buffered HBSPCM polymers (sodium citrate or saline) for 1 minute before recalcification at 37° C. Clot formation kinetics are monitored in a TEG machine (350 μl whole blood+35 μl polymer or control solution) at 37° C.
The coagulation time (FIG. 7A) and maximum clot strength, or maximum amplitude (MA) (FIG. 7B) are shown. Citrated whole blood was added to UFH or Tinzaparin (0.5 U/ml) and re-calcified at 37° C. in a TEG cup and monitored using a TEG machine. […]

[3] = system: Enoxaparin; assay: Thromboelastography (TEG), neutralization of Enoxaparin in whole blood; format: cell-based; conditions: human whole blood; JNK-5 and JNK-6 at 0.1 mg/ml
Method: This example examines thromboelastography in the presence of various heparin binders. Thromboelastography (TEG) provides an in vitro method for monitoring of the evolution of the viscoelastic properties and coagulation kinetics of blood as clotting proceeds. The principle components of the TEG are a cylindrical cup and a bob suspended in the cup from a weak torsion wire. The warmed cup oscillates over a 10 second period through an angle of 4° 45′. Blood is added and a torque is transmitted to the bob as the gel forms. The rate of clot formation, the strength of the clot, and the rate of clot lysis are reflected in the shape traced out by the maxima in the bob oscillation as a function of time (the trace of the TEG). The clot's physical properties, i.e. rate of clot formation, clot strength, and stability are dependent on the interaction of fibrinogen, platelets, and plasma proteins. TEG studies yield the cumulative effect of several components of coagulation (global homeostasis) as a function of time.
To carry out TEG experiments, citrate anti-coagulated whole blood with heparin or heparin derivatives added are incubated with buffered HBSPCM polymers (sodium citrate or saline) for 1 minute before recalcification at 37° C. Clot formation kinetics are monitored in a TEG machine (350 μl whole blood+35 μl polymer or control solution) at 37° C. […]

[4] = system: complement system; assay: Complement activation, CH50 sheep erythrocyte lysis assay; format: biochemical; conditions: serum, 0.05 and 0.5 mg/mL, 1 h, 37° C
Method: The level of complement activation was measured by a CH50 sheep erythrocyte lysis assay. Ten microliter of each of the 0.5 and 5 mg/mL polymers or protamine was mixed with 90 μL of serum for 1 h at 37° C. The final concentration of polymer/protamine to serum was 0.05 and 0.5 mg/mL. One mg/mL heat-activated human IgG and 5 mM EDTA, after mixing with serum, were the positive and negative controls, respectively, for the study. 60 μL of post-incubation serum/polymer or protamine mixture was diluted by 120 μL of GVB^2+ (CompTech). Seventy-five microliter of GVB^2+ diluted serum/polymer or protamine mixture was incubated for 1 h at 37° C. with 75 μL of Ab-sensitized sheep erythrocyte (CompTech). The reaction was stopped by addition of 300 μL cold GVB-EDTA to each sample. The samples were centrifuged and the optical density of supernatant was measured at 540 nm. One hundred percent lysis of the sheep erythrocyte was done by dH2O. The percentage of complement activation was calculated by 100-% lysis of sheep erythrocytes.

[5] = system: platelets; assay: Platelet activation of 23 kDa HBSPCM polymers (CD62-PE, flow cytometry); format: cell-based; conditions: PRP, 0.5 mg/mL, 1 h, 37° C
Method: The level of platelet activation was quantified by flow cytometry. Ninety microliter of PRP was incubated at 37° C. with 10 μL of 5 mg/mL of polymer or protamine (final concentration 0.5 mg/mL). After 1 h, aliquots of the incubation mixtures were removed for assessment of the platelet activation state. Five microliter of post-incubation platelet/polymer or protamine mixture, diluted in HEPES buffer, was incubated for 20 minutes in the dark with 5 μL of monoclonal anti-CD62-PE (Immunotech). The samples were then stopped with 0.5 mL of phosphate-buffered saline solution. The level of platelet activation was analyzed in a BD FACSCanto II flow cytometer (Becton Dickinson) by gating platelets specific events based on their FITC-CD42 fluorescence and light scattering profile. Activation of platelets was expressed as the percentage of platelet activation marker CD62-PE fluorescence detected in the 10,000 total events counted. Duplicate measurements were done, the mean of which was reported. Controls were done for the flow cytometric analysis. One U/ml of bovine thrombin (Sigma) was used as a positive control, and PE conjugated goat anti-mouse IgG polyclonal antibodies (Immunotech) was used as the non-specific binding control.

[6] = system: blood coagulation; assay: Blood coagulation: PT and APTT in platelet poor plasma; format: biochemical, human; conditions: FIG. 15, compared to saline
Method: The present example examines blood coagulation in the presence of a heparin binding polymer. JNK-1 polymers were tested for blood compatibility using the activated partial thromboplastin time (APTT) and the prothrombin time (PT) in fresh human plasma. PT can be used to evaluate the extrinsic and common coagulation pathway and the results are expressed in seconds required for a fibrin clot to form after tissue thromboplastin (innovin) has been added to the blood sample. APTT is used to evaluate the intrinsic and common coagulation pathway. The results are expressed in seconds required for a fibrin clot to form in the plasma sample after a partial thromboplastin reagent (actin) and calcium chloride have been added to the sample. Blood was mixed with a measured amount of citrate and the plasma was obtained by centrifugation, using methods known in the art.
A final JNK-1 concentration of 10 mg/ml is used at in a 9:1 dilution of plasma at 37° C. Control experiments were done adding identical volumes of saline solution. JNK-1 polymer solutions were incubated with platelet poor plasma for 5 minutes at 37° C. before adding PT and APTT reagents.
Blood coagulation is measured using APTT.

protamine
Anti Xa Neutralization (%) of Enoxaparin at 100 μg/ml [1]: 73 ± 4% | UFH neutralization (TEG: coagulation time, clot strength) [2]: not effective at neutralizing UFH or LMWH Tinzaparin and Enoxaparin in terms of the time to clot formation | Enoxaparin neutralization (TEG) [3]: not effective at neutralizing UFH or LMWH Tinzaparin and Enoxaparin in terms of the time to clot formation | complement activation (CH50) [4]: significant complement activation | platelet activation (CD62-PE) [5]: significant levels of platelet activation | blood coagulation (APTT biocompatibility) [6]: different blood coagulation profile
